How the values were obtained:
[1] = tested on: Schistosoma mansoni cercariae; test: Activity against Schistosoma mansoni cercariae (survival/mobility under stereomagnifier); assay type: cell-based; parameters: key: no effect during the entire test period of 120 minutes; 1: weak effect (the cercariae have a strongly reduced mobility); 2: good effect (the cercariae are only slightly mobile and bent); 3: full effect (the cercariae are completely immobile); details: 500 >1/l final concentration of the active compounds; 5 μl active compound in 25 μl PEG300 + 9 ml aquarium water + 1 ml cercariae suspension; test period 120 minutes
Experimental: Activity Against Schistosoma Mansoni Cercariae
[500 >1/l Final Concentration of the Active Compounds]
Snails (Biomphalaria glabrata) were infected by incubating each of them with 8 miracidia in 10 ml of water overnight. About 6 to 9 weeks after the infection, cercariae were obtained by irradiating the snails, which had been kept in darkness, with light, followed by collection of the swarming cercariae within 2 hours.
Such an amount of cercariae-containing water (1 or 2 ml, see below) was added to the test batches that each batch contained about 100 to 150 cercariae.
5 μl of active compound were mixed thoroughly with 25 μl of PEG300. 9 ml of aquarium water was then added, and the batch was shaken vigorously. After (delayed) addition of 1 ml of cercariae suspension, survival of the cercariae was in each case observed immediately using a stereomagnifier.

[2] = tested on: cercariae of Schistosoma mansoni; details: literature (Bruce et al. 1992), monkeys, topical; cited from earlier work
[3] = EU Directive on Dangerous Substances; Registry of Toxic Effects of Chemical Substances; cited from earlier work
[4] = tested on: cercariae of Schistosoma mansoni; details: literature (Fripp and Armstrong 1973; Salafsky et al. 1998); cited from earlier work

With CC(C)(C)C(=O)N1CCCCC1CCO (stereo not drawn) the Assessment [1] was 3.

For O=C(Nc1ccc([N+](=O)[O-])cc1Cl)c1cc(Cl)ccc1O [Niclosamide], the “action against the penetration of cercariae” value [2] is listed as “acts against the penetration of cercariae” and the toxicity [3] is listed as “may possibly cause inheritable genetic damage”.

For CCCCC(=O)N1CCCCC1CCO (stereo not drawn), the Assessment [1] was 2.

With CCN(CC)C(=O)CC1CCCCC1 the Assessment [1] was 3.

In the case of Oc1c(Cl)cc(Cl)c(Cl)c1Cc1c(O)c(Cl)cc(Cl)c1Cl [hexachlorophene], the toxicity [3] is listed as “toxic on contact with the skin and when swallowed” and the “effect on cercariae of Schistosoma mansoni” value [4] is listed as “lethal effect”.

In the case of CCN(CC)C(=O)c1cccc(C)c1 [N,N-Diethyl-m-toluamide (DEET), N,N-Diethyl-m-toluamide], the “effect on cercariae of Schistosoma mansoni” value [4] is given as “acts against cercariae”.

CCCCC(=O)N1CCCCC1CCOC (stereo not drawn) showed an Assessment [1] of 2.

From patent publication US20040014813A1, “Anthelminthic agents for the prevention of parasitic infections in humans and animals II” (priority 2000, published 2004)
